Test results reported in patent US12685776B2, “Arginine methyltransferase 5 (PRMT5) degraders and uses thereof” (DANA-FARBER CANCER INSTITUTE, INC., priority 2020, dated 2026).

Tests used:
H661 cells = assay: Cell-proliferation assay (CellTiter-Glo 2.0) in H661 cells; type: cell-based, human; conditions: FIG. 3B
Description: (§1) Inventive bifunctional compounds 1 and 2 were tested in the A427 (anon-small cell lung cancer (NSCLC) cell line) and H661(human lung large cell carcinoma) cells. CellTiter-Glo® 2.0 Cell Viability Assay (Promega™) was used to measure cell growth (proliferation) inhibition and to report the ATP level reduction in cells after treatment with the bifunctional compounds.

PRMT5/MEP50 = PRMT5/MEP50 (Homo sapiens, UniProt O14744); assay: PRMT5 activity inhibition, AlphaLISA assay; type: biochemical; conditions: PRMT5/MEP50 with biotinylated histone tail, FIG. 2A
Sequence of PRMT5/MEP50 (O14744 whole entry): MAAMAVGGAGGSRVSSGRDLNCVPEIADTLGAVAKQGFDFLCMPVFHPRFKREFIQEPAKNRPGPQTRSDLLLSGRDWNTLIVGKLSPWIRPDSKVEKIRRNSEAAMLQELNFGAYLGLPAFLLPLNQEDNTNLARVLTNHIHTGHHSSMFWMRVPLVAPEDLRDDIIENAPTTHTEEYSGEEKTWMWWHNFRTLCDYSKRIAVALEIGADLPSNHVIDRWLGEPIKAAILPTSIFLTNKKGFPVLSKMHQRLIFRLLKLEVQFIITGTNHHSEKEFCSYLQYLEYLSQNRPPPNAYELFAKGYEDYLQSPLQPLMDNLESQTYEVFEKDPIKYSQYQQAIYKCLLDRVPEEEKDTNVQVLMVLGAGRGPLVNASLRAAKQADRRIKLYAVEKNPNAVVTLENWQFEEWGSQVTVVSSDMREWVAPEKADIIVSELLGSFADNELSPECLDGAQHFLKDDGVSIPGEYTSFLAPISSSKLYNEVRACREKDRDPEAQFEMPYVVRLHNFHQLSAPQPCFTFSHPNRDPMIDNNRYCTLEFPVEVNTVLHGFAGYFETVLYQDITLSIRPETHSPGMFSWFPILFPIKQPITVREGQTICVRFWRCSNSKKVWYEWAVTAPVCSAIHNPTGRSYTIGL
Sequence of PRMT5/MEP50 (Q9BQA1 whole entry partner): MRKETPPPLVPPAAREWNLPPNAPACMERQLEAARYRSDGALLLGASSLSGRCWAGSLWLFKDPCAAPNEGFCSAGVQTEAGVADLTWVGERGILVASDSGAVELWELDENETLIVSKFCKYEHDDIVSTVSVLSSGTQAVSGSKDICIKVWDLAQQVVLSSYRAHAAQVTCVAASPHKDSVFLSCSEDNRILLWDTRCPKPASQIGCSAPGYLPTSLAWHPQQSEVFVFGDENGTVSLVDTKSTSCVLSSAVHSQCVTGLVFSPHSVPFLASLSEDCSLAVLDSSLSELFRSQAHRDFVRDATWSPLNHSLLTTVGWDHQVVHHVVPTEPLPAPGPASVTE
Description: PMRT5 inhibition in HEK 293 WT cells was determined by AlphaLISA® assay (PerkinElmer®) according to manufacturer's instructions. The biotinylated Histone 4 […] histone tail was incubated with PRMT5/MEP50 and inventive bifunctional compounds 1-9, cereblon-based bifunctional compound PRMT5-58, PRMT5 inhibitors EPZ15666 and LLY-283 and RPN13 inhibitor RA190. Then the H4R3symetric Me2 antibody coated beads together with streptavidin beads were incubated together. Assays were processed by EnVision® multimode plate reader (PerkinElmer®).

A427 cells = assay: Cell-proliferation assay (CellTiter-Glo 2.0) in A427 cells; type: cell-based; conditions: FIG. 3A
Description: as §1

HL60 cells = assay: Immunoblot analysis of HL60 cells, blotted targets; type: cell-based; conditions: FIG. 4A
Description: FIG. 4A is an image showing an immunoblot analysis of HL60 cells treated with different concentrations (μM) of inventive bifunctional compound 13 for 24 hours and 48 hours.
(§2) Protein lysates were subjected to immunoblot analysis using anti-Rpn13, anti-betaActin, anti-H4R3Me2s, anti-H3, anti-RPN1 and anti-RPN10.

RPN13 = molecular target: T1, RPN13 (Homo sapiens, UniProt Q16186); assay: Immunoblot analysis of HL60 cells, RPN13 degradation; type: cell-based; conditions: 24 hours, FIG. 4B
T1 construct: endogenous in cells; host or cells: HL60
T1 sequence (Q16186 whole entry): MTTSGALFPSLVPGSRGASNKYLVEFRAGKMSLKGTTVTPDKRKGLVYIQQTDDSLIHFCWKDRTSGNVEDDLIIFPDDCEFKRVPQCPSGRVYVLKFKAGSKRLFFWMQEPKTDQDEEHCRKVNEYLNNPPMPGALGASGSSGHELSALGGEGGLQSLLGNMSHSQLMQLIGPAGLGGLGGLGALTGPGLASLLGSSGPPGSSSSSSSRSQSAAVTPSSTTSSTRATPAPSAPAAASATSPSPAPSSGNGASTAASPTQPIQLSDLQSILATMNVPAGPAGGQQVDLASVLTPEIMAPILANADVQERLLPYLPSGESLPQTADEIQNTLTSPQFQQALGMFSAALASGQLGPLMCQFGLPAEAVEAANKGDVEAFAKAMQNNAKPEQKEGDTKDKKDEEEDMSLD
Description: (§3) FIG. 4B is an image showing an immunoblot analysis of HL60 cells treated with different concentrations (μM) of inventive bifunctional compound 14 for 24 hours.
as §2

PRMT5 = molecular target: T2, PRMT5 (Homo sapiens, UniProt O14744); assay: Immunoblot analysis of HL60 cells, PRMT5 degradation; type: cell-based; conditions: 24 hours, FIG. 4B
T2 construct: endogenous in cells; host or cells: HL60
T2 sequence (O14744 whole entry): as the sequence (O14744 whole entry) above
T2 sequence (Q9BQA1 whole entry partner): as the sequence (Q9BQA1 whole entry partner) above
Description: as §3, §2

O=C(CCCC(=O)N[C@@H](Cc1ccccc1)C(=O)N1C/C(=C\c2ccc(Cl)c(Cl)c2)C(=O)/C(=C/c2ccc(Cl)c(Cl)c2)C1)NCCCC(=O)N1CC(Nc2cc(C(=O)NC[C@H](O)CN3CCc4ccccc4C3)ncn2)C1 [Compound 1, N1-((S)-1-(3,5-bis((E)-3,4-dichlorobenzylidene)-4-oxopiperidin-1-yl)-1-oxo-3-phenylpropan-2-yl)-N5-(4-(3-((6-(((S)-3-(3,4-dihydroisoquinolin-2(1H)-yl)-2-hydroxypropyl)carbamoyl)pyrimidin-4-yl)amino)azetidin-1-yl)-4-oxobutyl)glutaramide]
inhibition of cell growth (proliferation) (H661 cells): effectively inhibited growth
PRMT5 activity inhibition (PRMT5/MEP50): successfully inhibited PRMT5 function
inhibition of cell growth (proliferation) (A427 cells): effectively inhibited growth

O=C(CNc1cc(C(=O)NC[C@H](O)CN2CCc3ccccc3C2)ncn1)NCCCCCCC(=O)N[C@@H](Cc1ccccc1)C(=O)N1C/C(=C\c2ccc([N+](=O)[O-])cc2)C(=O)/C(=C/c2ccc([N+](=O)[O-])cc2)C1 [Compound 13, 6-((2-((7-(((S)-1-(3,5-bis((E)-4-nitrobenzylidene)-4-oxopiperidin-1-yl)-1-oxo-3-phenylpropan-2-yl)amino)-7-oxoheptyl)amino)-2-oxoethyl)amino)-N-((S)-3-(3,4-dihydroisoquinolin-2(1H)-yl)-2-hydroxypropyl)pyrimidine-4-carboxamide]
degradation of blotted targets (HL60 cells; 24 and 48 hours): minimum degradation
concentration tolerated in the cell (HL60 cells): up to 10 μM

O=C(CCCC(=O)N1CCC(Nc2cc(C(=O)NC[C@@H](O)CN3CCc4ccccc4C3)ncn2)CC1)N[C@@H](Cc1ccccc1)C(=O)N1C/C(=C\c2ccc(Cl)c(Cl)c2)C(=O)/C(=C/c2ccc(Cl)c(Cl)c2)C1 [Compound 14, 6-((1-(5-(((S)-1-(3,5-bis((E)-3,4-dichlorobenzylidene)-4-oxopiperidin-1-yl)-1-oxo-3-phenylpropan-2-yl)amino)-5-oxopentanoyl)piperidin-4-yl)amino)-N-((R)-3-(3,4-dihydroisoquinolin-2(1H)-yl)-2-hydroxypropyl)pyrimidine-4-carboxamide]
concentration resulting in degradation of RPN13 (RPN13): 1 µM
concentration with complete loss of RPN13 (RPN13): 3 µM
concentration resulting in degradation of PRMT5 (PRMT5): 1 µM
concentration with complete loss of PRMT5 (PRMT5): 3 µM
